Read-outs that look alike come from different tables or passages of the source.
Key:
Experiment in all cases: KinomeScan kinase panel, single concentration 10 µM
Format in all cases: binding
KinomeScan kinase panel [1] = target: T1, KinomeScan kinase panel (Homo sapiens, UniProt Q13557); conditions: CAMK2D, 10 µM; read-out: score (%)
T1 construct: purchased DiscoveRx (KinomeScan)

KinomeScan kinase panel [2] = target: T2, KinomeScan kinase panel (Homo sapiens, UniProt Q9Y243); conditions: AKT3, 10 µM; read-out: score (%)
T2 construct: purchased DiscoveRx (KinomeScan)
T2 sequence (Q9Y243 whole entry): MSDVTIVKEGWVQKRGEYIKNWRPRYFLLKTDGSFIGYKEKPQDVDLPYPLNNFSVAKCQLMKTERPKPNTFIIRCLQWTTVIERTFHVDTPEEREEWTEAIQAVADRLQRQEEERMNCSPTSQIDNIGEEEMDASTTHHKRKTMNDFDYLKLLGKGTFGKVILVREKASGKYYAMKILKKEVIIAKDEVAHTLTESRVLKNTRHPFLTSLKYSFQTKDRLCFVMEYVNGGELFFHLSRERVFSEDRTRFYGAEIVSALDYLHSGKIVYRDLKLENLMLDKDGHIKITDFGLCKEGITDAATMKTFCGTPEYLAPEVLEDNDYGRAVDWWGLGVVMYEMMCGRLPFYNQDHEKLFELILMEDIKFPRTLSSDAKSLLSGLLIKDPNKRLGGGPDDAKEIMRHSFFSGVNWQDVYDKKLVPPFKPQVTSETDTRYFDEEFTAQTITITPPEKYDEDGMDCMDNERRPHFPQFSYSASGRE

KinomeScan kinase panel [3] = target: T3, KinomeScan kinase panel (Homo sapiens, UniProt Q02750); conditions: MEK1, 10 µM; read-out: score (%)
T3 construct: purchased DiscoveRx (KinomeScan)
T3 sequence (Q02750 whole entry): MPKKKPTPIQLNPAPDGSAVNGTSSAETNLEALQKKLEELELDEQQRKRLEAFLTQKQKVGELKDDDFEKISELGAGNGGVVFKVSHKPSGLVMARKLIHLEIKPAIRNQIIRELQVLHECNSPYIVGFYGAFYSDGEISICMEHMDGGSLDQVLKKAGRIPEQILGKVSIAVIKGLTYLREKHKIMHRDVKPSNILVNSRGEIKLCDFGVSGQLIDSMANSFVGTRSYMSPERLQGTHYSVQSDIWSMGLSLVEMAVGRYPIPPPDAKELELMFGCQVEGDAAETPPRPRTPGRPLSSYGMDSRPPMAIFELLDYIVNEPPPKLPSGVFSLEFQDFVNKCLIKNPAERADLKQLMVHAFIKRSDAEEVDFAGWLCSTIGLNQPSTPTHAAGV

KinomeScan kinase panel [4] = target: T4, KinomeScan kinase panel (Homo sapiens, UniProt P00533, DEL746-750)
T4 construct: purchased DiscoveRx (KinomeScan)

KinomeScan kinase panel [5] = target: T5, KinomeScan kinase panel (Homo sapiens, UniProt P08922); conditions: read-out: score (%)
T5 construct: purchased DiscoveRx (KinomeScan)

KinomeScan kinase panel [6] = target: T6, KinomeScan kinase panel (Homo sapiens, UniProt Q86Z02); conditions: HIPK1, 10 µM; read-out: score (%)
T6 construct: purchased DiscoveRx (KinomeScan)
T6 sequence (Q86Z02 whole entry): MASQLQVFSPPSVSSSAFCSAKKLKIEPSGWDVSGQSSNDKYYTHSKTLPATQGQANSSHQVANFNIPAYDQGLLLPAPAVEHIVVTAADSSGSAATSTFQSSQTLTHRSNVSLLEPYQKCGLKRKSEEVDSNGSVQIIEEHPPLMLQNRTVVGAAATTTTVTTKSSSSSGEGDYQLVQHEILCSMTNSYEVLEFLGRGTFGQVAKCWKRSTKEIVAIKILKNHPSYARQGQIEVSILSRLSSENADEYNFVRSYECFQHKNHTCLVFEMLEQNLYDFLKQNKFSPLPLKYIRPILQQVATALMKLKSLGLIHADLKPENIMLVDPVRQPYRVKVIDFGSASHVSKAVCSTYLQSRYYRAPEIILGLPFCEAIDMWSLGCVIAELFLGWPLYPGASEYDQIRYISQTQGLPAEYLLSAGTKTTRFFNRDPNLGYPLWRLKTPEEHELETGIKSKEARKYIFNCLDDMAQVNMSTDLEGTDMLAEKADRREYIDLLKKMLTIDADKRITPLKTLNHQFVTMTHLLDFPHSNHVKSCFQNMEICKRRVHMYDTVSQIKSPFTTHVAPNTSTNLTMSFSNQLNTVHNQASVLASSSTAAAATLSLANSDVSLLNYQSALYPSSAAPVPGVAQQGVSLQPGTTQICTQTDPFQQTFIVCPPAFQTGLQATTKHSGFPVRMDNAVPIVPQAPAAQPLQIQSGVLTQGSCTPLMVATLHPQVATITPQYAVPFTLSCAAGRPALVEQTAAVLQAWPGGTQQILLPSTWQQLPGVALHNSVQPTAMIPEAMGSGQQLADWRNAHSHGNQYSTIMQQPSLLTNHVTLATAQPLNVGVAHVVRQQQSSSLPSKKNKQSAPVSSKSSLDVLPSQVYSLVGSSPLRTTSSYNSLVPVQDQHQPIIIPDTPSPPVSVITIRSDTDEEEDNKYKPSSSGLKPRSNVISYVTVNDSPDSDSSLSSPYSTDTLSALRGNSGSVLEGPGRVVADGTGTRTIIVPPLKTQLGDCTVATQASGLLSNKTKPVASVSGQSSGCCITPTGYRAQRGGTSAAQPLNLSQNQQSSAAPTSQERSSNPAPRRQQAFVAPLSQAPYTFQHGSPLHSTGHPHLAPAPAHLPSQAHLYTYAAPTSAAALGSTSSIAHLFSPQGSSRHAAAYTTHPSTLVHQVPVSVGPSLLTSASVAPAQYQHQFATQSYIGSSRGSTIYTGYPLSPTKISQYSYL

KinomeScan kinase panel [7] = target: T7, KinomeScan kinase panel (Homo sapiens, UniProt Q86UE8); conditions: read-out: score (%)
T7 construct: purchased DiscoveRx (KinomeScan)

KinomeScan kinase panel [8] = target: T8, KinomeScan kinase panel (Homo sapiens, UniProt O75385); conditions: kinase ULK1; 10 µM
T8 construct: purchased DiscoveRx (KinomeScan)
T8 sequence (O75385 1-1050): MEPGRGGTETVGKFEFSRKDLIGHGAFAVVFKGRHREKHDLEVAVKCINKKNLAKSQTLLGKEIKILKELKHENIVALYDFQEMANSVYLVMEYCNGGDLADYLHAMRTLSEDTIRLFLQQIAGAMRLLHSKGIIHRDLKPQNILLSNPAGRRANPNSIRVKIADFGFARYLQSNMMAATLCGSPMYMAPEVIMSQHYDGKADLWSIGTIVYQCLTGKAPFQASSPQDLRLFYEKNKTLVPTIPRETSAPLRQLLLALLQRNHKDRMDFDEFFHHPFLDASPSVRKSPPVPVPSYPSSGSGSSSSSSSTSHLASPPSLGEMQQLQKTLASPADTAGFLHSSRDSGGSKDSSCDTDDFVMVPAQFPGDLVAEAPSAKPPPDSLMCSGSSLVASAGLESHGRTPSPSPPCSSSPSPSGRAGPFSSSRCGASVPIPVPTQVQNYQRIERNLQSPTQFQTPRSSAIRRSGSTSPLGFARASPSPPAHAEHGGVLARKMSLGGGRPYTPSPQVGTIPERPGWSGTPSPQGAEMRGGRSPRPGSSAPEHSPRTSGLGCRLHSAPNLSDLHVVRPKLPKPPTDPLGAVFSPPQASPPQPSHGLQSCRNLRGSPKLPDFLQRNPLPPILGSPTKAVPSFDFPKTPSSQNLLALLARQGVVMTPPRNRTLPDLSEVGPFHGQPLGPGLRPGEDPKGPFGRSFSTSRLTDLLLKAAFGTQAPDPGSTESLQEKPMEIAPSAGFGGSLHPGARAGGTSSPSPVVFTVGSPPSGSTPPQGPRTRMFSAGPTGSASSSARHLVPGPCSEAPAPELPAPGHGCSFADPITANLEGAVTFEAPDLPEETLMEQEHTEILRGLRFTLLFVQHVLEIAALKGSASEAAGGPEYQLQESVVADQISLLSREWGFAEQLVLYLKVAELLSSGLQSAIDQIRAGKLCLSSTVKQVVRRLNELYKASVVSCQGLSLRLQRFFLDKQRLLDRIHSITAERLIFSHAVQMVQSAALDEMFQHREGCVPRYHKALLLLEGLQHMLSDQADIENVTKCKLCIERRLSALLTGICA

KinomeScan kinase panel [9] = target: T9, KinomeScan kinase panel (Homo sapiens, UniProt O96017); conditions: CHEK2, 10 µM; read-out: score (%)
T9 construct: purchased DiscoveRx (KinomeScan)
T9 sequence (O96017 whole entry): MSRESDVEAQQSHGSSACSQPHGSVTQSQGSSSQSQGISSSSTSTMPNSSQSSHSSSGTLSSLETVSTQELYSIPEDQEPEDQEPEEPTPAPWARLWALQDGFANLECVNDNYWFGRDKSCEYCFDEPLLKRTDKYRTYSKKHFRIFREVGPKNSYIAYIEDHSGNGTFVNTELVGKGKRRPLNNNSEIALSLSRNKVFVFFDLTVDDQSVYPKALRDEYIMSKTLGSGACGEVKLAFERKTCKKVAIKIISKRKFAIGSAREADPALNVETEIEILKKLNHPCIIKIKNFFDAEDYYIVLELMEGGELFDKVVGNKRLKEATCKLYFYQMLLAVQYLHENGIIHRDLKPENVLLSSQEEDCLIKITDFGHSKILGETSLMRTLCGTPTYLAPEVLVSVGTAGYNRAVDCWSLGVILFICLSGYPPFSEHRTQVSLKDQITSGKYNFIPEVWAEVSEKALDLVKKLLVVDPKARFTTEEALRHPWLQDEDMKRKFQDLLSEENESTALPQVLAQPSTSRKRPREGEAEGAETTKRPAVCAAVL

KinomeScan kinase panel [10] = target: T10, KinomeScan kinase panel (Homo sapiens, UniProt Q9UM73); conditions: ALK, 10 µM; read-out: score (%)
T10 construct: purchased DiscoveRx (KinomeScan)
T10 sequence (Q9UM73 19-1620): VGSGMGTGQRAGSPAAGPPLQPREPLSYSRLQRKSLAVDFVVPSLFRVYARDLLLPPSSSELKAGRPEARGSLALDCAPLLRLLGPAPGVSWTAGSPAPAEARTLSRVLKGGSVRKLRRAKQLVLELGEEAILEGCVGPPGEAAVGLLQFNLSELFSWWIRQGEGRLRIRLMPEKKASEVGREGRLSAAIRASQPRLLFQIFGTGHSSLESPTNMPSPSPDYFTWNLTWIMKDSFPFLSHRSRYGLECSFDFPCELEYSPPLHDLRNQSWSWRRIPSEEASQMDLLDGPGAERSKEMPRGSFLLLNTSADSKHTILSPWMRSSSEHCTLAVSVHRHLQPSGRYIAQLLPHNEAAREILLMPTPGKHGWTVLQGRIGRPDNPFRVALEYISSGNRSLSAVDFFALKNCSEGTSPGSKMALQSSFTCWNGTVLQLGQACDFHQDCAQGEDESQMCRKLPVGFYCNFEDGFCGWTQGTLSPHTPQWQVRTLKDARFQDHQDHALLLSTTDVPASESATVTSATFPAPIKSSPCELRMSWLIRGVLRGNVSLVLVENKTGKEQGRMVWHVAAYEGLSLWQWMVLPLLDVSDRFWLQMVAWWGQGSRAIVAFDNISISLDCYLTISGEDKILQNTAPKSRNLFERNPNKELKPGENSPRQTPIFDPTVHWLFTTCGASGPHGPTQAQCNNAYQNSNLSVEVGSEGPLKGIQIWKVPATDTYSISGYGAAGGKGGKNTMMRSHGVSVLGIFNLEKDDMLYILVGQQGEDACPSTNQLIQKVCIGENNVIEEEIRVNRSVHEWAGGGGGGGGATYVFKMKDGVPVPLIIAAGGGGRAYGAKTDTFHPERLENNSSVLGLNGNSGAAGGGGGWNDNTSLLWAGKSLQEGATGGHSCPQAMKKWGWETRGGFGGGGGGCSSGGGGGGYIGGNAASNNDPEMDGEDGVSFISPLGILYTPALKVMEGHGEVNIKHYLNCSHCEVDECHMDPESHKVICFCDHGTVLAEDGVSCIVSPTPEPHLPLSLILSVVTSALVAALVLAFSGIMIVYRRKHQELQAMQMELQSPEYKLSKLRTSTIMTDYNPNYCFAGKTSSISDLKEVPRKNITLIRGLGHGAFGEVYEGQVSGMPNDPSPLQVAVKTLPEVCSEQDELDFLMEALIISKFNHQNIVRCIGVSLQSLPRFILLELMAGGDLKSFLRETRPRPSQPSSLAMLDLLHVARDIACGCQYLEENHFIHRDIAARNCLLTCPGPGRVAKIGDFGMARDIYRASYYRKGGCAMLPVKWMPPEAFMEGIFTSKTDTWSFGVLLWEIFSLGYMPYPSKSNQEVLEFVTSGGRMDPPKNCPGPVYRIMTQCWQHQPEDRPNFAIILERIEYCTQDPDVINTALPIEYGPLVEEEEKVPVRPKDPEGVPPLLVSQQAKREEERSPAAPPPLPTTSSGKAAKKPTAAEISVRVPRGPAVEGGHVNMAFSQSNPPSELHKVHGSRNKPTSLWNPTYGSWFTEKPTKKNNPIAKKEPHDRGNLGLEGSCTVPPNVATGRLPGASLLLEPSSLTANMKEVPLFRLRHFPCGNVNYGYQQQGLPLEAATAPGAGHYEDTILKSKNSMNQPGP

KinomeScan kinase panel [11] = target: T11, KinomeScan kinase panel (Homo sapiens, UniProt P36888, D835H); conditions: FLT3(D835H), 10 µM; read-out: score (%)
T11 construct: purchased DiscoveRx (KinomeScan)
T11 sequence (P36888 27-993 D835H): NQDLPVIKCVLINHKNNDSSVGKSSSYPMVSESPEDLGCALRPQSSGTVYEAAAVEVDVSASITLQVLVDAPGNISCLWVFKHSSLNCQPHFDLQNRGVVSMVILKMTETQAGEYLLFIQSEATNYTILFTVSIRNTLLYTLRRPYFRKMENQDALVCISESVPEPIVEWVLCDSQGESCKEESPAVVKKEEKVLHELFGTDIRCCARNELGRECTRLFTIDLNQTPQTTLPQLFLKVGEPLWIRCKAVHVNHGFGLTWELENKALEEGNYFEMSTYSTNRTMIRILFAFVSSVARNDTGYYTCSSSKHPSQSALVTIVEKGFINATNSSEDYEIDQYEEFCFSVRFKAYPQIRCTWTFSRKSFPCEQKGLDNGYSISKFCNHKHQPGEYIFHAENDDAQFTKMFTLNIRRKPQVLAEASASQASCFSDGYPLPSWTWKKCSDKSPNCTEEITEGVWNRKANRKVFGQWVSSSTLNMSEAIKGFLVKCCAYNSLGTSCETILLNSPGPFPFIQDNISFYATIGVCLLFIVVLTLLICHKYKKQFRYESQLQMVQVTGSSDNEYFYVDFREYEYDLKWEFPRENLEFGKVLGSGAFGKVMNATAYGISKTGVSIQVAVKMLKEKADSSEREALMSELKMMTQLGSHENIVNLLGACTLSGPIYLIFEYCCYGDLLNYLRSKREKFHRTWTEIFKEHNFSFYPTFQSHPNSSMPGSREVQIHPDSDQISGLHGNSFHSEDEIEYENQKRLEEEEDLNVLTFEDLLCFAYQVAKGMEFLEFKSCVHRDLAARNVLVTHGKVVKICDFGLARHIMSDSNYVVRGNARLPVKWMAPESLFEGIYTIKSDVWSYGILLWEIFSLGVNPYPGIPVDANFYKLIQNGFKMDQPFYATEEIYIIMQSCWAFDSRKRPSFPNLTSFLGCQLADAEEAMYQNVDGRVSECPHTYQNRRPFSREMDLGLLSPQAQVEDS

T1 sequence (Q13557 whole entry): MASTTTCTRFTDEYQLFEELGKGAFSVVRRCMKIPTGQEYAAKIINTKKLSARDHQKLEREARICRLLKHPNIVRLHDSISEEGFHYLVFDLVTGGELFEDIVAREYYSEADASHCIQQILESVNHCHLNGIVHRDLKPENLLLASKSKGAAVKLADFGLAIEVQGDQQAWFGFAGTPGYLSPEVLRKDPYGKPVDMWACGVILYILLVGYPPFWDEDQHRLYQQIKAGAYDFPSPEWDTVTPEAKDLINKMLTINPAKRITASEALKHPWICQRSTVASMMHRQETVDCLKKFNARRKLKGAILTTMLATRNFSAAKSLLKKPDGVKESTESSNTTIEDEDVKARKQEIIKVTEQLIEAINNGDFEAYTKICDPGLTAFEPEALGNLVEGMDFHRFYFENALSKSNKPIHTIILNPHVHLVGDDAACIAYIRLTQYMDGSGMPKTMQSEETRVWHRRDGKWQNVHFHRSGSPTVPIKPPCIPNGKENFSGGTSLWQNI

Structure (SMILES)	remaining binding at 10 µM (KinomeScan kinase panel [1]) [%]	remaining binding at 10 µM (KinomeScan kinase panel [2]) [%]	remaining binding at 10 µM (KinomeScan kinase panel [3]) [%]	score (%) (KinomeScan kinase panel [4])	remaining binding at 10 µM (KinomeScan kinase panel [5]; ROS1, 10 µM) [%]	remaining binding at 10 µM (KinomeScan kinase panel [6]) [%]	remaining binding at 10 µM (KinomeScan kinase panel [7]; kinase TLK2, 10 µM) [%]	score (%) (KinomeScan kinase panel [8])	remaining binding at 10 µM (KinomeScan kinase panel [9]) [%]	remaining binding at 10 µM (KinomeScan kinase panel [10]) [%]	remaining binding at 10 µM (KinomeScan kinase panel [11]) [%]	score (%) (KinomeScan kinase panel [4]; EGFR(E746-A750del), 10 µM)	remaining binding at 10 µM (KinomeScan kinase panel [5]; kinase ROS1, 10 µM) [%]	remaining binding at 10 µM (KinomeScan kinase panel [7]; TLK2, 10 µM) [%]
CCN1CCN(Cc2ccc(NC(=O)c3ccc(C)c(NC(=O)c4cncc(-c5cccs5)c4)c3)cc2C(F)(F)F)CC1 [ALW-II-41-27]	> 30	20	> 30	1.2	> 30	> 30	> 30	nb (Hits values higher than 30% were considered negative (no binding: nb))	> 30	> 30	1.4	–	–	–
CCN1CCN(Cc2ccc(NC(=O)c3ccc(C)c(C#Cc4cccnc4)c3)cc2C(F)(F)F)CC1 [XMD15-44]	> 30	> 30	> 30	–	–	> 30	100	24%	> 30	23	0.15	1.8	46	–
CCN1CCN(Cc2ccc(NC(=O)c3ccc(C)c(/C=C/c4cnc5[nH]ccc5c4Cl)c3)cc2C(F)(F)F)CC1 [HG-6-63-01, (E)-3-(2-(4-chloro-1H-pyrrolo[2,3-b]pyridin-5-yl)vinyl)-N-(4-((4-ethylpiperazin-1-yl)methyl)-3-(trifluoromethyl)phenyl)-4-methylbenzamide]	> 30	> 30	> 30	–	> 30	> 30	–	8.7%	> 30	> 30	0.1	0.9	–	> 30
